Like-named read-outs stand apart in the source and are kept apart here.
Legend:
M4 muscarinic receptor = target: T1, M4 muscarinic receptor (Homo sapiens, UniProt P08173); assay: Functional mobilization of intracellular calcium (FLIPR) in M4-CHO cells; assay type: cell-based
T1 construct: expressed in transfected cells; host or cells: CHO (M4-CHO)
T1 sequence (P08173 1-479): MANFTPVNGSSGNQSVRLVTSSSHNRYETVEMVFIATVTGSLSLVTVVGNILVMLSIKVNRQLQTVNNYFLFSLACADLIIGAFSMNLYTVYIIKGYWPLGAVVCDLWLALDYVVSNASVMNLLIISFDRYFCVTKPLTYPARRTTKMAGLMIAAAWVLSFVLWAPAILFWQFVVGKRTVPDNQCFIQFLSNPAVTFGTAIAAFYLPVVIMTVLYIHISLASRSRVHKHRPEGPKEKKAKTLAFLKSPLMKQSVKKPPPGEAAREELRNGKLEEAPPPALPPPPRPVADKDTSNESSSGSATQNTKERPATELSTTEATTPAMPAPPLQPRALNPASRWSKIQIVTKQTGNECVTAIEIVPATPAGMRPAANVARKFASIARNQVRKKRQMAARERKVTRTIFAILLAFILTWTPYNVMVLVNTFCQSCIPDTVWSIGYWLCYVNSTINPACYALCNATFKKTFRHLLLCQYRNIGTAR
Outline: (§1)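 Steps: seed M1- or M4-CHO cells 18-24 hrs ahead; load calcium dye with 1 mM probenecid; add test compound (0.5% DMSO final), either alone for agonism or 15 min before EC80 carbachol for inhibition; record FLIPR fluorescence for 60 sec.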

M1 muscarinic receptor = target: T2, M1 muscarinic receptor (Homo sapiens, UniProt P11229); assay: Functional mobilization of intracellular calcium (FLIPR) in M1-CHO cells; assay type: cell-based
T2 construct: expressed in transfected cells; host or cells: CHO (M1-CHO)
T2 sequence (P11229 1-460): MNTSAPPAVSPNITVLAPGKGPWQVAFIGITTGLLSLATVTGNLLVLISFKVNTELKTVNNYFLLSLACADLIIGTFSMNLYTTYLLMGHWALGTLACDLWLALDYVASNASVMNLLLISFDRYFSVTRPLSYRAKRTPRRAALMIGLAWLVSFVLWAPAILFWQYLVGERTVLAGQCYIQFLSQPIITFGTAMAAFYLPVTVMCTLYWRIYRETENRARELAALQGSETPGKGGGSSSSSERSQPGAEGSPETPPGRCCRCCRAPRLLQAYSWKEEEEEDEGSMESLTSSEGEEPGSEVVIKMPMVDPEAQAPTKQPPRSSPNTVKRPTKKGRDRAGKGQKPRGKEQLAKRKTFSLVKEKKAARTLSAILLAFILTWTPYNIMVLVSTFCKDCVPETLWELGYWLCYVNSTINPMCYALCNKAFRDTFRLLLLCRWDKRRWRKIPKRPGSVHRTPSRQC
Outline: as §1

[1] = Table 4, 100% efficacy is the maximum response obtained with the Carbachol control
[2] = Table 4, modulating M4 receptor
[3] = Table 4, modulating M1 receptor
[4] = M4 receptor, calcium mobilization
[5] = M4 receptor, calcium mobilization, read-out: M4 Efficacy
[6] = M1 receptor, calcium mobilization
[7] = M1 receptor, calcium mobilization, read-out: M1 Efficacy
[8] = Table 4, M4 receptor, calcium mobilization (FLIPR)
[9] = Table 4, M1 receptor, calcium mobilization (FLIPR)

SMILES	Emax (M4 muscarinic receptor; [1]) [%]	M4 Activity (M4 muscarinic receptor; [2])	Emax (M1 muscarinic receptor; [1]) [%]	M1 Activity (M1 muscarinic receptor; [3])	M4 Activity (M4 muscarinic receptor; [4])	Emax (M4 muscarinic receptor; [5]) [%]	M1 Activity (M1 muscarinic receptor; [6])	Emax (M1 muscarinic receptor; [7]) [%]	M4 Activity (M4 muscarinic receptor; [8])	M1 Activity (M1 muscarinic receptor; [9])
CCOC(=O)N1CCC(N2CCC3(CC2)CN(C2CCC4(CC2)OCCO4)c2ccccc23)CC1 [compound 513]	25 to 100	xxx (activity was measured to be less than 2.0 μM)	25 to 100	xxx (activity was measured to be less than 2.0 μM)						
CCOC(=O)N1CCC(N2CCC3(CC2)CN(C(C)=O)c2ccc(OC(F)(F)F)cc23)CC1 [compound 225]					x (activity was measured to be greater than 1.0 μM)	< 65	x (activity was measured to be greater than 1.0 μM)	< 65		
CCCCOC(=O)N1CC2(CCN(C3CCN(C(=O)OCC)CC3)CC2)c2cc(F)ccc21 [compound 220]					x (activity was measured to be greater than 1.0 μM)	< 65	x (activity was measured to be greater than 1.0 μM)	65 to 85		
COCCN1CC2(CCN([C@@H]3C[C@H]4CCC3C4)CC2)c2cc(C)ccc21 [compound 737]	25 to 100	xxx (activity was measured to be less than 2.0 μM)	25 to 100	xx (activity was measured to be between 2.0 μM and 5.0 μM)						
CCOC(=O)N1CCC(N2CCC3(CC2)CN(C(C)=O)c2ccc(-c4ccc(S(C)(=O)=O)cc4)cc23)CC1 [compound 177]					xx (activity was measured to be between 0.1 μM and 1.0 μM)	65 to 85	xxx (activity was measured to be less than 0.1 μM)	65 to 85		
CC(=O)NC1CCC2(CCN(CCC3CCN(S(C)(=O)=O)CC3)CC2)c2ccccc21 (centres unmarked) [compound 969]	< 25		25 to 100						x (activity was measured to be greater than 5.0 μM)	xxx (activity was measured to be less than 2.0 μM)
CCOC(=O)N1CCC(N2CCC3(CC2)CN(C(C)=O)c2c(-c4ccccc4C)cccc23)CC1 [compound 911]	< 25		< 25						x (activity was measured to be greater than 5.0 μM)	x (activity was measured to be greater than 5.0 μM)
COCCOC(=O)N1CCC(N2CCC3(CC2)CN(C(C)=O)c2ccc(C)cc23)CC1 [compound 293]					xxx (activity was measured to be less than 0.1 μM)	> 85	xx (activity was measured to be between 0.1 μM and 1.0 μM)	> 85		
CN(C)C(=O)NC1CCC2(CCN(CCC3CC4CCC3C4)CC2)c2ccccc21 (centres unmarked) [compound 1010]	< 25		< 25						x (activity was measured to be greater than 5.0 μM)	x (activity was measured to be greater than 5.0 μM)
CN(C)C(=O)N1CC2(CCN(C3CCN(c4cnc5ccccc5n4)CC3)CC2)c2cc(F)ccc21 [compound 914]	25 to 100		25 to 100						xxx (activity was measured to be less than 2.0 μM)	xxx (activity was measured to be less than 2.0 μM)
O=C(OC1CCC1)N1C2CCC1CC(N1CCC3(CC1)C(=O)Nc1ccccc13)C2 (centres unmarked) [compound 217]					x (activity was measured to be greater than 1.0 μM)	< 65	xx (activity was measured to be between 0.1 μM and 1.0 μM)	< 65		
CC(=O)NC1CC2(CCN(C3CC4CCC(C4)C3)CC2)c2ccccc21 (centres unmarked) [compound 8]					xx (activity was measured to be between 0.1 μM and 1.0 μM)	65 to 85	xx (activity was measured to be between 0.1 μM and 1.0 μM)	< 65		
CCCOC(=O)N1CCCC(N2CCC3(CC2)CN(C(C)=O)c2ccc(F)cc23)CC1 (centres unmarked) [compound 266]					x (activity was measured to be greater than 1.0 μM)	< 65	x (activity was measured to be greater than 1.0 μM)	< 65		
CC(=O)N[C@H]1CC2(CCN(Cc3ccoc3)CC2)c2ccccc21 [compound 530]	< 25	x (activity was measured to be greater than 5.0 μM)	< 25	x (activity was measured to be greater than 5.0 μM)						
O=C1CC2(CCN(C[C@H]3C[C@H]4C=C[C@H]3C4)CC2)c2ccccc21 [compound 104]					x (activity was measured to be greater than 1.0 μM)	< 65	xxx (activity was measured to be less than 0.1 μM)	65 to 85		
Cc1ccc2c(c1)C(=O)CC21CCN(CC2C[C@H]3CC[C@H]2C3)CC1 (some centres unmarked) [compound 470]	25 to 100	xx (activity was measured to be between 2.0 μM and 5.0 μM)	25 to 100	xx (activity was measured to be between 2.0 μM and 5.0 μM)						
CCOC(=O)N1CCC(N2CCC3(CC2)CN(C(=O)C2(O)CC2)c2ccc(F)cc23)CC1 [compound 543]	25 to 100	xxx (activity was measured to be less than 2.0 μM)	> 100	xxx (activity was measured to be less than 2.0 μM)						
CCOC(=O)N1CCC(N2CCC3(CC2)CN(C(=O)N(C)c2ccccc2)c2ccc(F)cc23)CC1 [compound 169]					x (activity was measured to be greater than 1.0 μM)	> 85	xxx (activity was measured to be less than 0.1 μM)	65 to 85		
CCOC(=O)N1C2CCC1CC(N1CCC3(CC1)CN(C(=O)c1ccno1)c1ccc(F)cc13)C2 (centres unmarked) [compound 88]					xx (activity was measured to be between 0.1 μM and 1.0 μM)	< 65	xxx (activity was measured to be less than 0.1 μM)	65 to 85		
CCOC(=O)N1CCC(N2CCC3(CC2)CN(C(=O)OCC(C)(C)C)c2ccc(F)cc23)CC1 [compound 63]					x (activity was measured to be greater than 1.0 μM)	< 65	xxx (activity was measured to be less than 0.1 μM)	< 65		
O=C1CC2(CCN(C[C@@H]3C[C@H]4C=C[C@H]3C4)CC2)c2ccccc21 [compound 238]					x (activity was measured to be greater than 1.0 μM)	< 65	x (activity was measured to be greater than 1.0 μM)	< 65		
O=C(OC1CCCC1)N1C2CCC1CC(N1CCC3(CC1)COc1ccc(F)cc13)C2 (centres unmarked) [compound 133]					xx (activity was measured to be between 0.1 μM and 1.0 μM)	65 to 85	xxx (activity was measured to be less than 0.1 μM)	> 85		
CN(C)C(=O)N1CC2(CCN(C3CCN(C(=O)OCC4CC4)CC3)CC2)c2cc(F)ccc21 [compound 595]	25 to 100	xxx (activity was measured to be less than 2.0 μM)	25 to 100	xxx (activity was measured to be less than 2.0 μM)						

Source: patent US7786141B2 (Vertex Pharmaceuticals Incorporated, priority 2004, dated 2010)
